Measured values reported in patent publication US12668785B2, “Combination treatment by administering a recombinant apyrase protein in conjunction with a P2Y12 inhibitor” (ASTRAZENECA AB, priority 2020, dated 2026).
Where two headings read alike, the source gives them in different places.

Assays:
[1] = test system: pig animal model of myocardial infarction; assay: Cardiac damage assessed by CMR in pig model of myocardial infarction; format: in vivo; conditions: ticagrelor 180 mg p.o. 2 h prior MI, then 90 mg/bid
Description: (§1) Regular chow-fed Landrace pigs (n=20; weight≈40 kg) were randomly (Excel randomized function) distributed into four groups to receive: • I) Oral placebo-control (2 h prior Myocardial Infarction (MI) induction n=5) • II) A loading dose of ticagrelor (180 mg; n=5; p.o 2 h prior MI induction) • III) A loading dose of ticagrelor (180 mg; n=5; p.o 2 h prior MI induction and 1 mg/kg AZD3366 i.v. 10 min before reperfusion) • IV) A loading dose of ticagrelor (180 mg; n=5; p.o 2 h prior MI induction and 3 mg/kg AZD3366 i.v. 10 min before reperfusion)
(§2) Thereafter, pigs underwent temporary (90 minutes) balloon occlusion of the mid-left anterior descending coronary artery (experimental MI) and then reperfused, essentially as described in Vilahur et al. 2016. Throughout the following 42 days, the pigs received daily oral maintenance dosing of placebo (group I) or ticagrelor (90 mg/bid, groups II to IV) and serial Cardiac Magnetic Resonance (CMR) assessments were performed at day 3 (early remodeling phase) and day 42 (late remodeling phase) post-MI.
(§3) On the day of MI-induction animals received buprenorphine (0.03 mg/kg) and cefazoline (25 mg/kg) as prophylaxis for pain and wound infection, respectively, and then anaesthetized by administrating an intramuscular injection of ketamine (30 mg/kg), xylazine (2.2 mg/kg), and atropine (0.05 mg/kg). Once tranquilized, animals were endotracheally intubated and anesthesia was maintained by isoflurane inhalation (2%). Prior to starting the MI-induction procedure, an infusion of amiodarone (300 mg) and lidocaine (150 mg) in 1.000 mL of saline (250 mL/h) was initiated as prophylaxis for malignant ventricular arrhythmias through a line placed in the marginal ear vein and a bolus of heparin (100 U/kg) was administered to prevent clot formation in the catheters. […] Complete coronary ischemia (verified by angiography) was maintained for 90 minutes. At the end of the ischemic period, the balloon was completely deflated and animals were allowed to recover. Electrocardiogramand hemodynamic parameters were continuously recorded throughout the entire procedure and the echocardiographic system (Phillips iE33) equipped with a S5-1 sector array transducer was used prior- and post-MI induction to document the initial worsening of left ventricular ejection fraction (LVEF, M-mode analysis using the parasternal long-axis view; Vilahur et al. 2016).
(§4) CMR studies were conducted serially in all animals at Day 3 (early remodeling phase) and Day 42 (late remodeling phase) post-MI. The studies were performed on a 3.0T-CMR system (AchievaVR, Philips, Amsterdam, The Netherlands) and CMR image acquisition was carried out by a CMR specialized technician blinded in terms of treatment. For CMR studies, animals were anaesthetized with an intramuscular injection of a cocktail composed of ketamine, xylazine, and atropine and maintained by a continuous intravenous infusion of propofol to ensure mechanical ventilation. Once the animals were positioned in a head-first supine position with a flexible phased-array surface coil placed over the chest, ECG gating was used to acquire still images of the heart. The following dedicated CMR sequences were acquired in all cases: ‘cine’ Balanced Steady-State Free Precession (bSSFP) imaging sequence to assess wall motion (WM) and cardiac function; T2-weighted short-tau inversion recovery (T2w-STIR) sequence to assess myocardial edema; early gadolinium enhancement to study microvascular obstruction (no reflow phenomenon); and late gadolinium enhancement (LGE) to assess the amount and extent of myocardial necrosis. All the CMR studies followed the same scheme. First, scout images [T1-turbo field echo (TFE) sequence] were obtained to localize the true axes of the heart and define a field of view involving the whole heart. […]

[2] = test system: pig animal model of myocardial infarction; assay: Global and regional cardiac function assessed by CMR in pig model of myocardial infarction; format: in vivo
Description: as §1, §2, §3, §4

platelet aggregation [3] = assay: ADP-induced whole blood platelet aggregation (Multiplate impedance aggregometer) after in vivo dosing; design: species or system mouse; conditions: for PA (AU*min): blood at t = 80 min, ADP 6.5 μmol/L
Description: Immediately after the blood sampling, 175 μL whole blood was added to the Multiplate® (Roche Diagnostics GmbH, Mannheim, Germany) mini test cells and mixed with 175 μL 37° C. pre-heated saline (9 mg/mL, Fresenius Kabi AG, Bad Homburg, Germany).

[4] = Plasma concentration of ticagrelor by LC-MS/MS; format: in vivo; conditions: C57BI6, mouse, intravenous, t = 80 min, ticagrelor 1.2 mg/kg + 30 μg/kg*min
Description: The plasma concentration of ticagrelor was determined by means of a Liquid Chromatographic-Mass Spectrometric (LC-MS/MS) method.

[5] = cited from earlier work; for time to peak plasma concentration: after oral administration; for mean elimination half-life: described in the drug label
platelet aggregation [6] = conditions: cited from earlier work; for time for platelet activity to return to baseline following discontinuance: after discontinuance
C57BI6 mice [7] = assay: Mouse tail bleeding model (blood loss and bleeding time)
Description: (§5) C57BI6 mice were administered an intravenous bolus of AZD3366 or vehicle. In separate groups, mice were administered AZD3366 and ticagrelor or ticagrelor only as a bolus and continuous infusion of ticagrelor. The groups, doses and volumes of administration were as described in the following table:
(§6) Twenty min following dosing, bleeding was initiated by cutting 5 mm of the tip of the tail. The tail was rinsed with water and placed in a haemoglobin sensitive device. Light transmission through the blood and water mixture was recorded and converted to absorbance using the PharmLab software (V6.0, AstraZeneca R&D, Gothenburg, Sweden). Transmittance below 95% was defined as bleeding. Total blood loss, (area under the bleeding curve, t=20 min to t=80 min: cumulative blood loss vs time, absorbance*s, abs*s) and bleeding time (BT) were measured over 60 min from the start of tail cutting.

animal models [8] = conditions: cited from earlier work
C57BI6 mice [9] = conditions: mouse, in vivo, iv
Description: as §5, §6

[10] = test system: adenosine diphosphatase activity; conditions: Moeckel et al. (2014); cited from earlier work
animal models [11] = conditions: cited from earlier work; remark: listed apart in the source
[12] = test system: animal models of ischemic stroke; conditions: Sun et al., 2011; Tan et al., 2014; cited from earlier work
[13] = in vivo; cited from earlier work
[14] = 3 Days Post-MI, ticagrelor 180 mg p.o. 2 h prior MI, then 90 mg/bid
[15] = 42 Days Post-MI, ticagrelor 180 mg p.o. 2 h prior MI, then 90 mg/bid
[16] = BSL (baseline), ticagrelor group
[17] = ticagrelor-treated animals, p<0.001
[18] = preclinical models (Moekel et al. 2015)

## CCCSc1nc(N[C@@H]2C[C@H]2c2ccc(F)c(F)c2)c2nnn([C@@H]3C[C@H](OCCO)[C@@H](O)[C@H]3O)c2n1 [Ticagrelor, (1S,2S,3R,5S)-3-[7-[[(1R,2S)-2-(3,4-difluorophenyl)cyclopropyl]amino]-5-(propylthio)-3H-1,2,3-triazolo[4,5-d]pyrimidin-3-yl]-5-(2-hydroxyethoxy)-1,2-cyclopentanediol]
[1]; 3 Days Post-MI
  Edema % of LV mass: 13.1 ± 0.9 %
  Edema (gr): 10.5 ± 0.8 gr
  LV Mass: 81.3 ± 7.4
  Necrosis % of LV mass: 8.2 ± 1.2 %
  Necrosis (gr): 6.6 ± 1.0 gr
[1]; 42 Days Post-MI
  LV Mass: 108.6 ± 6.9
  Necrosis % of LV mass: 4.3 ± 0.8 %
  Necrosis (gr): 4.7 ± 1.0 gr
[2]; [14]
  LVEF %: 50.3 ± 2.9%
  Wall motion (mm): 1.88 mm
[2]; [15]
  LVEF %: 47.0 ± 4.4%
  Wall motion (mm): 2.55 mm
[2]; [16]
  LVEF %: 53.7 ± 2.8%
  Wall motion (mm): 2.66 mm
Platelet aggregation [3]; ticagrelor 1.2 mg/kg + 30 μg/kg*min
  PA (AU*min): 2 ± 2 AU*min
[4]
  concentration at 80 min: 8 ± 0.2 µM
[5]
  time to peak plasma concentration: approximately 1.5 hours
  mean elimination half-life: 7 h
Platelet aggregation [6]; after a dose
  time maximum inhibition of platelet aggregation is maintained: more than 8 hours
Platelet aggregation [6]
  time for platelet activity to return to baseline following discontinuance: 5 days
C57BI6 mice [7]; bleeding time over 60 min, ticagrelor bolus 1.2 mg/kg + infusion 30 μg/kg*min
  BT (s) Median: 3433a, d s
C57BI6 mice [7]; tail transection at t = 20 min, recorded 60 min, ticagrelor bolus 1.2 mg/kg + infusion 30 μg/kg*min
  Blood loss (abs*s) Median: 1157a, b, c abs*s
C57BI6 mice [7]; [17]
  BT increase as compared to vehicle: 5.2 fold
  Blood loss increase as compared to vehicle: 7.2 fold

## CC(=O)Oc1cc2c(s1)CCN(C(C(=O)C1CC1)c1ccccc1F)C2 (stereo not shown) [Prasugrel]
[5]; stated after the active metabolite of prasugrel
  elimination half-life: about 7.4 hours

## COC(=O)[C@H](c1ccccc1Cl)N1CCc2sccc2C1 [Clopidogrel]
[5]; following a single dose of 75 mg
  elimination half-life: approximately 6 hours
[5]; following an oral dose, analyte: active metabolite
  time to peak plasma concentrations of the active metabolite: 30 to 60 min
Platelet aggregation [6]
  time for platelet activity to return to baseline following discontinuance: about 5 days
Platelet aggregation [6]; following oral administration of a single dose
  time at which dose-dependent platelet aggregation inhibition is observed: around 2 hours
Animal models [8]; FIG. 6 of Moeckel et al. (2014)
  cardioprotection / protective efficacy: not cardioprotective

## CCCSc1nc(N[C@@H]2C[C@H]2c2ccc(F)c(F)c2)c2nnn([C@@H]3C[C@H](O)[C@@H](O)[C@H]3O)c2n1 [AR-C124910XX]
[5]
  time to peak plasma concentration: ~2.5 h
  mean elimination half-life: 9 h
Platelet aggregation [6]; in vivo
  potency of active metabolite relative to ticagrelor: approximately equipotent

## Clc1ccccc1CN1CCc2sccc2C1 [ticlopidine]
[5]
  time to peak plasma concentration: around 2 hours

## CSCCNc1nc(SCCC(F)(F)F)nc2c1ncn2[C@@H]1O[C@H](COP(=O)(O)OP(=O)(O)C(Cl)(Cl)P(=O)(O)O)[C@@H](O)[C@H]1O [Cangrelor]
[5]; from onset of infusion
  time to steady state plasma levels and platelet aggregation inhibition: ≤ 30 min
[5]; in vivo
  elimination half-life: 3 to 6 min
  plasma half-life: less than 9 min
Platelet aggregation [6]; after discontinuation
  time for platelet responses to return to baseline: ≤ 15 min
Platelet aggregation [6]; in vivo
  time to maximal platelet inhibition: ≤ 15 min

B1: AZD3366: recombinant optimised form of soluble CD39L3 apyrase (R67G, T69R, N-terminal EVLP), amino acid sequence SEQ ID NO: 2 (protein)
chain: EVLPPGLKYGIVLDAGSSGTRVYVYQWPAEKENNTGVVSQTFKCSVKGSGISSYGNNPQDVPRAFEECMQKVKGQVPSHLHGSTPIHLGATAGMRLLRLQNETAANEVLESIQSYFKSQPFDFRGAQIISGQEEGVYGWITANYLMGNFLEKNLWHMWVHPHGVETTGALDLGGASTQISFVAGEKMDLNTSDIMQVSLYGYVYTLYTHSFQCYGRNEAEKKFLAMLLQNSPTKNHLTNPCYPRDYSISFTMGHVFDSLCTVDQRPESYNPNDVITFEGTGDPSLCKEKVASIFDFKACHDQETCSFDGVYQPKIKGPFVAFAGFYYTASALNLSGSFSLDTFNSSTWNFCSQNWSQLPLLLPKFDEVYARSYCFSANYIYHLFVNGYKFTEETWPQIHFEKEVGNSSIAWSLGYMLSLTNQIPAESPLIRLPIEPPV
modifications: N-terminal EVLP
Platelet aggregation [3]; AZD3366 1 and 3 mg/kg
  platelet aggregation (PA) inhibition: complete platelet aggregation (PA) inhibition
Platelet aggregation [3]; AZD3366 1.0 mg/kg
  PA (AU*min): 2 ± 2 AU*min
Platelet aggregation [3]; AZD3366 3.0 mg/kg
  PA (AU*min): 0 ± 0 AU*min
C57BI6 mice [9]; 1 mg/kg
  BT (s) Median: 589 s
  Blood loss (abs*s) Median: 157 abs*s
C57BI6 mice [9]; 3 mg/kg
  BT (s) Median: 1438 s
  Blood loss (abs*s) Median: 342e abs*s
[10]
  adenosine diphosphatase activity compared with native apyrase: four times higher
Animal models [8]; Moeckel et al. (2014)
  bleeding time: without an increase in bleeding time
  infarction size: decreased infarction size
Animal models [11]; animal models
  time until active after administration: ≤ 5 min
  time until return to baseline: 3 to 4 weeks
Animal models [11]; [18]
  time activity is maintained: more than 24 hours
  time to high levels of activity after administration: within minutes
[12]
  reperfusion, re-occlusion and intracerebral bleeding: enhance reperfusion, reduce re-occlusion and reduce intracerebral bleeding
[13]
  plasma half-life compared with native apyrase: 50 times
